The values that follow come from patent US5952308A, “Mineral absorption promoting agent” (Pola Chemical Industries Inc., priority 1991, dated 1999).

The subject of one data set is Wistar rat. As to the kind of experiment: Acute toxicity test of oligogalacturonic acid. The following applies: in vivo, po. As to the method:
Acute toxicity test of oligogalacturonic acid
Animal: Wistar rat: One group comprising
10 each of male and female rats
Specimen: 50% oligogalacturonic acid aqueous
Oral forced administration
Dosage: Group 1 10 ml/kg

For another data set, the system named is hemoglobin. The data set is described as follows: Mineral absorption promoting effect test on animals (hemoglobin increase, iron utilization). The data set is classed as in vivo, Wistar male rats. As to the method:
Wistar male rats (body weight:80 g) were feeded for 3 weeks, giving iron-free feed, ferrous sulfate-added feed (iron: 12 ppm), or ferrous sulfate and oligogalacturonic acid-added feed (iron: 12 ppm, powder oligogalacturonic acid obtained in the preparation method 1=0.5%).
During the period, hemoglobin concentration in blood was measured every 7 days, and utilization ratios of iron in each of these feeds were compared, using hemoglobin increase (hemoglobin concentration in blood×blood volume) as an index.
Net increase of hemoglobin (number of tested rats = 10); unit: […]

On to oligogalacturonic acid, for which the “autopsy after 14 days” value in the data set with Wistar rat is listed as “no abnormal sign”.
Turning to ferrous sulfate, the “Net increase of hemoglobin, 7th day” value with hemoglobin (7th day, feed with iron 12 ppm, n = 10 rats, ± SD) was found to be 0.2 ± 0.1 g. For the same substance, in the data set with hemoglobin (14th day, feed with iron 12 ppm, n = 10 rats, ± SD), the “Net increase of hemoglobin, 14th day” value came to 0.3 ± 0.1 g. For the same substance, the “Net increase of hemoglobin, 21st day” value with hemoglobin (21st day, feed with iron 12 ppm, n = 10 rats, ± SD) amounted to 0.4 ± 0.2 g. For the same substance, the “Net increase of hemoglobin, at start” value in the data set with hemoglobin (at start, feed with iron 12 ppm, n = 10 rats, ± SD) amounted to 0 g. Also, in the data set with hemoglobin (iron in feed, 3 weeks, index hemoglobin increase (hemoglobin concentration in blood×blood volume)), the Utilization ratio was determined as 33%.
